Experimental data published in patent US20140228440A1, “1-AMINO-ALKYLCYCLOHEXANE DERIVATIVES FOR THE TREATMENT OF INFLAMMATORY SKIN DISEASES” (MERZ PHARMA GmbH & CO. KGaA, priority 2008, published 2014).

What was measured:
Assay type in all cases: cell-based
Conditions in all cases: pH 5.5
[1] = tested on: Staphylococcus aureus ATCC 6538; experiment: MIC by the agar dilution method
Protocol: (§1) To assess the anti-microbial potency of Neramexane against bacteria strains which are relevant for atopic dermatitis and localized skin infections (“impetigo”), the minimal inhibitory concentration (MIC) against the following bacteria is established:
(§2) The MICs of the samples are determined using the agar dilution method based on DIN 58940. Petri dishes of 5.5 cm diameter are poured with 2.5 ml of freshly prepared Mueller-Hinton agar 2-fold concentrated (Merck company, Cat-No 1.05437), pH 5.5, maintained in liquid form at 50° C., to which the sample dilutions at various concentrations has been added at 50.0 vol.-%.
(§3) Neramexane-Mesylate is tested in the concentration range of 6.25-1*10^−2%. All test solutions are adjusted to pH 5.5.
(§4) For inoculation, 1 μl of the respective germ suspension is placed on the centre of each agar plate. After drying, inoculated plates are incubated at 36.0±2.0° C. The basis for the length of incubation period is the respective growth control cultivated in parallel.
(§5) The test microbe suspension is prepared by inoculating a few individual colonies of the respective bacteria into sterile saline solution until a turbidity corresponding to the McFarland standard 1.0 (approximately 10^8 cfu/ml) is reached. After that, the test microbe suspensions are further diluted 1:10 with saline solution and the microbial counts (see Table 33) are determined by the surface spread method using a spiral plater.
(§6) The agar plates are incubated under the conditions given in Table 34 and subsequently evaluated. The MIC-values as given represent the lowest concentration of the active substance at which there is no macroscopically visible growth. Minimal, barely visible growth or few small individual colonies are evaluated as inhibition.
(§7) The growth of bacteria is indicated for the duplicate plates by a +(i.e., growth) or a −(i.e., no growth), +− indicates weak growth on both plates or growth on one plate and no growth on the other plate. Both bacteria-strains show appropriate growth on the respective control plate not containing any test compound. No influence of the used diluent (Aqua purifacata) is observed. No contamination is observed on the control-plates. In general it has to be considered that values determined by the used method can vary by a factor of 2 (for 1:2 dilutions).

[2] = tested on: Streptococcus pyogenes ATCC 12344; experiment: MIC by the agar dilution method
Protocol: as §1, §2, §3, §4, §5, §6, §7

[3] = tested on: Staphylococcus epidermidis ATCC 12228; experiment: MIC and MBC by the agar dilution method
Protocol: To assess the anti-microbial potency of Neramexane against acne relevant bacterias the minimal inhibitory concentration (MIC) and minimal bactericidal concentration (MBC) against the following bacterias is established: The MICs of the samples are determined using the agar dilution method based on DIN 58940. Petri dishes of 5.5 cm diameter are poured with 2.5 ml of freshly prepared Mueller-Hinton agar (Merck company, Cat-No 1.05437) or Wilkins-Chalgren-Agar (Oxoid company, Cat-No CM643), maintained in liquid form at 50° C., to which the sample dilutions at various concentrations have been added at 50.0 vol.-%. To prepare the starting sample dilutions, a 12.5%, 3.12% suspension of the respective sample solution is prepared with Aqua purificata. From these stock-solutions, further dilutions are prepared with Aqua purificata. All test compounds are adjusted to pH 5.5. For test product no. 1, separate dilutions adjusted to pH 6.0 and pH 7.4 are also prepared. For inoculation, 1 μl of the respective germ suspension is placed on the centre of each agar plate. After drying, inoculated plates are incubated at 36.0±2.0° C. The basis for the length of incubation period is the respective growth control cultivated in parallel. The test microbe suspension is prepared by inoculating a few individual colonies of the respective bacteria into sterile saline solution until a turbidity corresponding to the McFarland standard 1.0 (approximately 10^8 cfu/ml) is reached. After that, the test microbe suspensions are further diluted 1:10 with saline solution and the microbial counts (see Table 21) are determined by the surface spread method using a spiral plater. The agar plates are incubated under the conditions given in Table 22 and subsequently evaluated. The MIC-values as given represent the lowest concentration of the active substance at which there is no macroscopically visible growth. Minimal, barely visible growth or few small individual colonies are evaluated as inhibition. [table] All negative tests of the determination of the minimal bactericial concentration are the basis of verification of remaining germs, the inoculated agar segments are cut and put in Mueller-Hinton-Bouillon (germ 1) or Wilkins-Chalgren-Bouillon (germs 2-4). After an adequate incubation period at 36.0±2.0° C. (as judged from a control without test compound), the tests are checked manually on microbial growth (=turbidity) and the minimal bactericidal concentration is determined. MBC indicates the concentration without marked turbidity. Grown germs are checked for identity to rule out unspecific contaminations. The following results are summarized and tabulated: • a) Results of the Minimal Inhibitory Concentration (MIC)* • b) Results of the Minimal Bactericidal Concentration (MBC) *The MIC is the concentration without macroscopical growth. Scarcely apparent, minimum growth or few single colonies are not considered. The controls must have a respectively good developed growth. There must be no growth on the agar plates for the sterile control. The growth of bacteria is indicated for the duplicate plates by a +(i.e., growth) or a −(i.e., no growth), +− indicates weak growth on both plates or growth on one plate and no growth on the other plate. All bacteria show appropriate growth on the respective control plate not containing any test compound. No influence of the used diluent (Aqua purifacata) was observed. No contamination is observed on the control-plates.

growth of bacteria on duplicate plates (MIC determination) ([1]; final concentration 0.01 %): + + | growth of bacteria on duplicate plates (MIC determination) ([1]; final concentration 0.04 %): + + | growth of bacteria on duplicate plates (MIC determination) ([1]; final concentration 0.08 %): + + | growth of bacteria on duplicate plates (MIC determination) ([1]; final concentration 0.16 %): + + | growth of bacteria on duplicate plates (MIC determination) ([1]; final concentration 0.31 %): + + | growth of bacteria on duplicate plates (MIC determination) ([1]; final concentration 0.63 %): + − | growth of bacteria on duplicate plates (MIC determination) ([1]; final concentration 1.56 %): − − | growth of bacteria on duplicate plates (MIC determination) ([1]; final concentration 2.50 %): − − | growth of bacteria on duplicate plates (MIC determination) ([1]; final concentration 3.13 %): − − | growth of bacteria on duplicate plates (MIC determination) ([1]; final concentration 6.25 %): − − | MIC [1]: 1.56% | growth of bacteria on duplicate plates (MIC determination) ([2]; final concentration 0.01 %): + + | growth of bacteria on duplicate plates (MIC determination) ([2]; final concentration 0.04 %): + + | growth of bacteria on duplicate plates (MIC determination) ([2]; final concentration 0.08 %): − − | growth of bacteria on duplicate plates (MIC determination) ([2]; final concentration 0.16 %): − − | growth of bacteria on duplicate plates (MIC determination) ([2]; final concentration 0.31 %): − − | growth of bacteria on duplicate plates (MIC determination) ([2]; final concentration 0.63 %): − − | growth of bacteria on duplicate plates (MIC determination) ([2]; final concentration 1.56 %): − − | growth of bacteria on duplicate plates (MIC determination) ([2]; final concentration 2.50 %): − − | growth of bacteria on duplicate plates (MIC determination) ([2]; final concentration 3.13 %): − − | growth of bacteria on duplicate plates (MIC determination) ([2]; final concentration 6.25 %): − − | MIC [2]: 0.08% | growth of bacteria on duplicate plates (MIC determination) ([3]; final concentration 0.01 %): + + | growth of bacteria on duplicate plates (MIC determination) ([3]; final concentration 0.04 %): + + | growth of bacteria on duplicate plates (MIC determination) ([3]; final concentration 0.08 %): + + | growth of bacteria on duplicate plates (MIC determination) ([3]; final concentration 0.16 %): − − | growth of bacteria on duplicate plates (MIC determination) ([3]; final concentration 0.31 %): − − | growth of bacteria on duplicate plates (MIC determination) ([3]; final concentration 0.63 %): − − | growth of bacteria on duplicate plates (MIC determination) ([3]; final concentration 1.56 %): − − | growth of bacteria on duplicate plates (MIC determination) ([3]; final concentration 2.50 %): − − | growth of bacteria on duplicate plates (MIC determination) ([3]; final concentration 3.13 %): − − | growth of bacteria on duplicate plates (MIC determination) ([3]; final concentration 6.25 %): − − | MIC [3]: 0.16%
Compound: CC1(C)CC(C)(C)CC(C)(N)C1.CS(=O)(=O)O [Neramexane mesylate]
growth of bacteria (MBC determination) ([3]; final concentration 0.16 %): + + | growth of bacteria (MBC determination) ([3]; final concentration 0.31 %): + + | growth of bacteria (MBC determination) ([3]; final concentration 0.63 %): + + | growth of bacteria (MBC determination) ([3]; final concentration 1.56 %): − − | growth of bacteria (MBC determination) ([3]; final concentration 2.50 %): − − | growth of bacteria (MBC determination) ([3]; final concentration 3.13 %): − − | growth of bacteria (MBC determination) ([3]; final concentration 6.25 %): − − | MBC [3]: 1.56%
